Assay results: PubChem BioAssay (NCI)
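Exposure lasted 48 hours, with cells grown in 96-well plates and compounds tested at five concentrations. At the GI50, growth is halved. At the TGI there is no net growth.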

Key:
Test in all cases: NCI tumour cell line growth inhibition, 48 h
[1] = system: M14 melanoma
[2] = system: SK-MEL-28 melanoma
[3] = system: NCI-H226 lung
[4] = system: BT-549 breast
[5] = system: HL-60(TB) leukemia
[6] = system: OVCAR-8 ovarian
[7] = system: OVCAR-4 ovarian
[8] = system: HCT-15 colon
[9] = system: KM12 colon
[10] = system: MOLT-4 leukemia

Structure (SMILES)	GI50 [1] [µM]	TGI [1] [µM]	GI50 [2] [µM]	TGI [2] [µM]	GI50 [3] [µM]	TGI [3] [µM]	GI50 [4] [µM]	TGI [4] [µM]	GI50 [5] [µM]	TGI [5] [µM]	GI50 [6] [µM]	TGI [6] [µM]	GI50 [7] [µM]	TGI [7] [µM]	GI50 [8] [µM]	TGI [8] [µM]	GI50 [9] [µM]	TGI [9] [µM]	GI50 [10] [µM]	TGI [10] [µM]
Nc1cc2c3c(cccc3c1)C(=O)N(CCN1CCCC1)C2=O	3.92	21.7	4.28	18.2	1.98	6.23	6.49	29.8	4.16	> 100	3.69	> 100	4.75	42.5	2.02	> 100	3.66	51.2	1.74	> 46.4
CC(C)(C)C[C@H]1N[C@@H](C(=O)NC2CCC(O)CC2)[C@H](c2cccc(Cl)c2F)[C@@]12C(=O)Nc1cc(Cl)ccc12 (some centres undefined)	4.05	17.3	3.28	11.7	0.238	1.04	3.8	14.1	2.66	7.06	14.8	39.4	5.6	18.7	3.92	18.2	6.85	22.1	0.314	1.81
COC1=CC(=O)O/C1=C(\OC)C1OC1c1ccccc1 (centres undefined)	–	> 100	–	> 100	–	> 100	–	> 100	–	> 100	–	> 100	–	> 100	–	> 100	–	> 100	–	> 100
CCOC(=O)Nc1ccc2nc(-c3cscn3)[nH]c2c1	2.86	> 100	7.23	> 100	30.7	> 100	7.1	> 100	3.17	> 100	7.89	> 100	48.9	> 100	2.2	> 100	2.05	> 100	5.31	> 100
C/C(=N/NC(=S)Nc1ccccc1)c1nc2ccc(Cl)cc2[nH]1	0.0763	0.26	0.18	0.872	0.134	0.925	0.135	0.924	0.101	0.503	0.16	1.15	0.0466	2.42	0.0656	6.9	0.14	0.826	0.086	1.1
COc1cc(C2CC(c3ccc(Nc4nc(NCCO)nc(NCCO)n4)cc3)=NN2c2cc(Cl)cc(Cl)c2)cc(OC)c1OC (centres undefined)	1.58	3.24	1.53	3.14	3.85	16.8	1.67	4.54	1.5	3.43	2.01	5.86	1.63	3.66	1.5	3.13	1.53	3.21	1	4.12
CC1(C)CC(C)(C)c2cc(NC(=S)Nc3ccc([N+](=O)[O-])cc3)ccc2S1	17.9	> 53.9	17.2	68.5	14.3	38.5	13.2	28.2	30.2	> 85.3	16.6	60.4	14.8	60.4	12.6	45.8	10.9	34.8	19.1	> 100
CC1=NN(c2cccc(Cl)c2)C(=O)/C1=C\c1cn(CC(O)CN2CCCCC2)c2ccccc12 (centres undefined)	1.75	3.29	1.82	3.47	22.5	50.4	15	29.5	2.89	14.4	6.93	92.9	13.3	28.1	2.42	6.7	2.92	8.26	4.76	28.8
Cc1cccc(C2NC(=O)c3ccccc3N2)c1 (centres undefined)	–	> 54.8	–	> 100	–	50.5	–	> 100	–	> 27.2	–	> 100	–	> 100	–	> 100	–	> 100	–	> 23.9
O=C1c2cccc3cccc(c23)C(=O)N1CCCCCN1CCN(CCN=c2cc3n(-c4ccc(Cl)cc4)c4ccccc4nc-3cc2Nc2ccc(Cl)cc2)CC1	7.53	16.5	18.9	> 50	35.6	> 50	22.2	> 50	6.91	21.3	12	> 50	6.22	17.3	9.28	37.5	11.9	46.3	–	–
Clc1ccccc1C(Nc1cnccn1)Nc1cnccn1	–	> 100	–	> 100	–	> 100	–	> 100	–	> 100	–	> 100	–	> 100	–	> 100	–	> 100	–	> 100
N=C1CCCC1C(=S)SCCC(N)=O (centres undefined)	–	> 100	–	> 100	–	> 100	–	> 100	–	> 100	–	> 100	–	> 100	–	> 100	–	> 100	–	> 100
CCN(CC)C(=S)SSC(C)C	6.1	20.6	11.1	23.1	29.4	> 100	13.4	30.5	5.63	29.8	15.1	35.4	13.4	26.2	22	65.4	–	–	3.76	25.4
COc1cc2c(/C=C3\C(=O)Nc4ccccc43)c[nH]c2cc1C	< 0.0178	0.843	0.021	20.3	0.035	19.7	0.294	15.8	0.494	4.45	0.0917	7.19	–	–	0.725	2.93	0.239	0.824	0.142	2.52
